Source: patent publication US10206909B2, “3-(1H-pyrrolo[2,3-B]pyridin-2-yl)-1H-pyrazolo[4,3-B]pyridines and therapeutic uses thereof” (Samumed, LLC, priority 2015, dated 2019)

Experiments:
[1] = tested on: IL-6 (THP-1 cells); experiment: IL-6 inhibition in LPS-stimulated THP-1 cells (HTRF); assay type: cell-based; details: Homo sapiens; for EC50: THP-1 cells, LPS 500 ng/mL, 22 hours, IL6 HTRF; for inhibition at 10 µM: given where EC50 >10 μM, THP-1, IL6, read-out: percent inhibition at 10 μM
How it was run: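 THP-1 cells, pre-cultured 24 h in 1% FBS, were preincubated 2 h with compound over a 10-point 1:3 series from 10 μM (0.1% DMSO). They were then stimulated with 500 ng/mL LPS for 22 h at 37° C. IL-6 was read by HTRF 665/620 nm ratio, and EC50 was fitted by four-parameter regression against DMSO; above 10 μM, % inhibition at 10 μM is given.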

[2] = tested on: primary human fibroblasts derived from IPF patients (LL29 cells); experiment: Inhibition of the fibrotic process: αSMA staining in TGF-β1 treated fibroblasts; assay type: cell-based; details: Fibroblast; for EC50: 96 h, LL29 cells, TGF-β1 20 ng/mL, 4 days, % αSMA positive cells; for inhibition at 10 µM: given where EC50 >10 μM, LL29, αSMA, read-out: percent inhibition at 10 μM
How it was run: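 EC50 from triplicate-well dose-response fits of % αSMA-positive cells, normalized to TGF-β1-stimulated DMSO controls, with SYTOX-positive dead cells excluded. LL29 IPF fibroblasts received compound at 10 μM–1.87 nM (0.1% DMSO) plus 20 ng/mL TGF-β1 for 4 days in 1% FBS medium; above 10 μM, % inhibition at 10 μM reported.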

## CCNCc1cncc(-c2ccc3[nH]nc(-c4cc5cccnc5[nH]4)c3n2)c1 [Compound 258, N-((5-(3-(1H-Pyrrolo[2,3-b]pyridin-2-yl)-1H-pyrazolo[4,3-b]pyridin-5-yl)pyridin-3-yl)methyl)ethanamine]
[1]
  EC50: > 10000 nM
  inhibition at 10 µM: 4.6%
[2]
  EC50: 1580 nM

## CN(C)Cc1cncc(-c2ccc3[nH]nc(-c4cc5cccnc5[nH]4)c3n2)c1 [Compound 265, 1-(5-(3-(1H-Pyrrolo[2,3-b]pyridin-2-yl)-1H-pyrazolo[4,3-b]pyridin-5-yl)pyridin-3-yl)-N,N-dimethylmethanamine]
[1]
  EC50: 653 nM
[2]
  EC50: 3200 nM

## O=C(Nc1cncc(-c2ccc3[nH]nc(-c4cc5cccnc5[nH]4)c3n2)c1)C1CCCCC1 [Compound 275, N-(5-(3-(1H-Pyrrolo[2,3-b]pyridin-2-yl)-1H-pyrazolo[4,3-b]pyridin-5-yl)pyridin-3-yl)cyclohexanecarboxamide]
[1]
  EC50: 157 nM
[2]
  EC50: > 10000 nM
  inhibition at 10 µM: 0%

## FC1(F)CCN(Cc2cncc(-c3ccc4[nH]nc(-c5cc6cccnc6[nH]5)c4n3)c2)C1 [Compound 278, 5-(5-((3,3-Difluoropyrrolidin-1-yl)methyl)pyridin-3-yl)-3-(1H-pyrrolo[2,3-b]pyridin-2-yl)-1H-pyrazolo[4,3-b]pyridine]
[1]
  EC50: 107 nM
[2]
  EC50: 86 nM

## c1cnc2[nH]c(-c3n[nH]c4ccc(-c5cncnc5)nc34)cc2c1 [Compound 279, 5-(Pyrimidin-5-yl)-3-(1H-pyrrolo[2,3-b]pyridin-2-yl)-1H-pyrazolo[4,3-b]pyridine]
[1]
  EC50: 3 nM
[2]
  EC50: > 10000 nM
  inhibition at 10 µM: 0%

## CN(C)c1cncc(-c2ccc3[nH]nc(-c4cc5c(-c6ccoc6)ccnc5[nH]4)c3n2)c1 [Compound 315, 5-(3-(4-(Furan-3-yl)-1H-pyrrolo[2,3-b]pyridin-2-yl)-1H-pyrazolo[4,3-b]pyridin-5-yl)-N,N-dimethylpyridin-3-amine]
[1]
  EC50: 418 nM
[2]
  EC50: 5520 nM

## O=C(Cc1ccccc1)Nc1cncc(-c2ccc3[nH]nc(-c4cc5c(-c6ccoc6)ccnc5[nH]4)c3n2)c1 [Compound 318, N-(5-(3-(4-(Furan-3-yl)-1H-pyrrolo[2,3-b]pyridin-2-yl)-1H-pyrazolo[4,3-b]pyridin-5-yl)pyridin-3-yl)-2-phenylacetamide]
[1]
  EC50: > 10000 nM
  inhibition at 10 µM: 46.6%
[2]
  EC50: > 10000 nM
  inhibition at 10 µM: 25.7%

## c1csc(-c2ccnc3[nH]c(-c4n[nH]c5ccc(-c6ccncc6)nc45)cc23)c1 [Compound 354, 5-(Pyridin-4-yl)-3-(4-(thiophen-2-yl)-1H-pyrrolo[2,3-b]pyridin-2-yl)-1H-pyrazolo[4,3-b]pyridine]
[1]
  EC50: 1620 nM
[2]
  EC50: 2250 nM

## c1csc(-c2ccnc3[nH]c(-c4n[nH]c5ccc(-c6cncnc6)nc45)cc23)c1 [Compound 363, 5-(Pyrimidin-5-yl)-3-(4-(thiophen-2-yl)-1H-pyrrolo[2,3-b]pyridin-2-yl)-1H-pyrazolo[4,3-b]pyridine]
[1]
  EC50: > 10000 nM
  inhibition at 10 µM: 36.3%
[2]
  EC50: 546 nM

## CN(C)CCNc1cc(F)cc(-c2ccnc3[nH]c(-c4n[nH]c5ccc(-c6ccncc6)nc45)cc23)c1 [Compound 466, N^1-(3-Fluoro-5-(2-(5-(pyridin-4-yl)-1H-pyrazolo[4,3-b]pyridin-3-yl)-1H-pyrrolo[2,3-b]pyridin-4-yl)phenyl)-N^2,N^2-dimethylethane-1,2-diamine]
[1]
  EC50: > 10000 nM
  inhibition at 10 µM: 31%
[2]
  EC50: 391 nM

## CN(C)CCNc1cc(F)cc(-c2ccnc3[nH]c(-c4n[nH]c5ccc(-c6cncc(CNCC7CCCC7)c6)nc45)cc23)c1 [Compound 473, N^1-(3-(2-(5-(5-(((Cyclopentylmethyl)amino)methyl)pyridin-3-yl)-1H-pyrazolo[4,3-b]pyridin-3-yl)-1H-pyrrolo[2,3-b]pyridin-4-yl)-5-fluorophenyl)-N^2,N^2-dimethylethane-1,2-diamine]
[1]
  EC50: 6750 nM
[2]
  EC50: 2000 nM

## Fc1cccc(-c2ccnc3[nH]c(-c4n[nH]c5ccc(-c6cncc(OCc7ccccc7)c6)nc45)cc23)c1 [Compound 518, 5-(5-(Benzyloxy)pyridin-3-yl)-3-(4-(3-fluorophenyl)-1H-pyrrolo[2,3-b]pyridin-2-yl)-1H-pyrazolo[4,3-b]pyridine]
[1]
  EC50: > 10000 nM
  inhibition at 10 µM: 9.6%
[2]
  EC50: 2450 nM

## Oc1cncc(-c2ccc3[nH]nc(-c4cc5c(-c6ccc(F)cc6)ccnc5[nH]4)c3n2)c1 [Compound 533, 5-(3-(4-(4-Fluorophenyl)-1H-pyrrolo[2,3-b]pyridin-2-yl)-1H-pyrazolo[4,3-b]pyridin-5-yl)pyridin-3-ol]
[1]
  EC50: > 10000 nM
  inhibition at 10 µM: 37.1%
[2]
  EC50: > 10000 nM
  inhibition at 10 µM: 43%

## CN(C)CCOc1cncc(-c2ccc3[nH]nc(-c4cc5c(-c6cccnc6)ccnc5[nH]4)c3n2)c1 [Compound 563, N,N-Dimethyl-2-((5-(3-(4-(pyridin-3-yl)-1H-pyrrolo[2,3-b]pyridin-2-yl)-1H-pyrazolo[4,3-b]pyridin-5-yl)pyridin-3-yl)oxy)ethan-1-amine]
[1]
  EC50: > 10000 nM
  inhibition at 10 µM: 20.3%
[2]
  EC50: 3040 nM

## c1cc(-c2ccnc3[nH]c(-c4n[nH]c5ccc(-c6cncc(OCCN7CCCC7)c6)nc45)cc23)ccn1 [Compound 578, 3-(4-(Pyridin-4-yl)-1H-pyrrolo[2,3-b]pyridin-2-yl)-5-(5-(2-(pyrrolidin-1-yl)ethoxy)pyridin-3-yl)-1H-pyrazolo[4,3-b]pyridine]
[1]
  EC50: > 10000 nM
  inhibition at 10 µM: 27%
[2]
  EC50: 1240 nM

## c1cc(N2CCCCC2)c2cc(-c3n[nH]c4ccc(C5CCNCC5)nc34)[nH]c2n1 [Compound 601, 3-(4-(Piperidin-1-yl)-1H-pyrrolo[2,3-b]pyridin-2-yl)-5-(piperidin-4-yl)-1H-pyrazolo[4,3-b]pyridine]
[1]
  EC50: 3500 nM
[2]
  EC50: > 10000 nM
  inhibition at 10 µM: 20.1%

## CN1CCN(c2ccnc3[nH]c(-c4n[nH]c5ccc(-c6cn[nH]c6)nc45)cc23)CC1 [Compound 635, 3-(4-(4-Methylpiperazin-1-yl)-1H-pyrrolo[2,3-b]pyridin-2-yl)-5-(1H-pyrazol-4-yl)-1H-pyrazolo[4,3-b]pyridine]
[1]
  EC50: > 10000 nM
  inhibition at 10 µM: 8.4%
[2]
  EC50: 1500 nM

## Cn1cc(-c2ccc3[nH]nc(-c4cc5cccnc5[nH]4)c3n2)cn1 [Compound 652, 5-(1-Methyl-1H-pyrazol-4-yl)-3-(1H-pyrrolo[2,3-b]pyridin-2-yl)-1H-pyrazolo[4,3-b]pyridine]
[1]
  EC50: 46 nM
[2]
  EC50: 1210 nM

## O=C(CC1CCNCC1)Nc1cncc(-c2ccc3[nH]nc(-c4cc5c(-c6ccoc6)ccnc5[nH]4)c3n2)c1 [Compound 689, N-(5-(3-(4-(Furan-3-yl)-1H-pyrrolo[2,3-b]pyridin-2-yl)-1H-pyrazolo[4,3-b]pyridin-5-yl)pyridin-3-yl)-2-(piperidin-4-yl)acetamide]
[1]
  EC50: 3340 nM
[2]
  EC50: 2180 nM

## c1csc(-c2ccnc3[nH]c(-c4n[nH]c5ccc(-c6cncc(OC7CCCCC7)c6)nc45)cc23)c1 [Compound 703, 5-(5-(Cyclohexyloxy)pyridin-3-yl)-3-(4-(thiophen-2-yl)-1H-pyrrolo[2,3-b]pyridin-2-yl)-1H-pyrazolo[4,3-b]pyridine]
[1]
  EC50: 303 nM
[2]
  EC50: 1620 nM

## c1csc(-c2ccnc3[nH]c(-c4n[nH]c5ccc(-c6cncc(OC7CCNCC7)c6)nc45)cc23)c1 [Compound 704, 5-(5-(Piperidin-4-yloxy)pyridin-3-yl)-3-(4-(thiophen-2-yl)-1H-pyrrolo[2,3-b]pyridin-2-yl)-1H-pyrazolo[4,3-b]pyridine]
[1]
  EC50: 106 nM
[2]
  EC50: 1820 nM
